Data on 9 molecules can be found in ChEMBL document CHEMBL2150895, “Zizimauritic acids A-C, three novel nortriterpenes from Ziziphus mauritiana” (Bioorg Med Chem Lett, 2012).

Converted amounts (≈) assume the structure as drawn. The source made the active and inactive calls. The rule behind the calls is not given here. Bounds are passed on as bounds.

In one assay the test system is A549. In words: Cytotoxicity against human A549 cells. Type of assay: functional, cell-based.
For another assay, the system named is BGC-823. Briefly: Cytotoxicity against human BGC823 cells. Type of assay: functional, cell-based.
The subject of another assay is HeLa. In words: Cytotoxicity against human HeLa cells. Type of assay: functional, cell-based.
The next assay relates to Staphylococcus aureus. In words: Antibacterial activity against Staphylococcus aureus. Type of assay: functional, organism-based.
The next assay deals with Candida albicans. Briefly: Antifungal activity against Candida albicans. Type of assay: functional, organism-based.

`C=C(C)[C@@H]1CC[C@]2(C(=O)O)CC[C@]3(C)[C@H](CC[C@@H]4[C@@]5(C)CC[C@H](O)C(C)(C)[C@@H]5CC[C@]43C)[C@@H]12`: the outcome in the assay with A549, in the assay with BGC-823, with HeLa and in the assay with Staphylococcus aureus was inactive.
Take `C=C(C)[C@@H]1CC[C@]2(C(=O)O)CC[C@]3(C)[C@H](CC[C@@H]4[C@@]5(C)[C@@H](C(=O)O)[C@H](O)C(C)(C)[C@@H]5CC[C@]43C)[C@@H]12`: the result in the assay with A549, in the assay on BGC-823, in the assay on HeLa and in the assay on Staphylococcus aureus was inactive.
Usually IC50 stands for the concentration needed to halve the response being measured. As to `CC(C)=C[C@@H]1[C@H]2CC[C@@H]3[C@@]4(C)C=CC(C)(C)[C@@H]4CC[C@@]3(C)[C@]2(C(=O)O)CC[C@@]12CC(O)OC2=O` (mixture of isomers) [ZIZIMAURITIC ACID C], the IC50 in the assay with A549 is 11.9 µg/mL; in the assay with BGC-823, 10.1 µg/mL; in the assay with HeLa, 9.25 µg/mL; with Staphylococcus aureus, 12.8 µg/mL; with Candida albicans it was above 10 µg/mL.
With `CC1(C)S[C@@H]2[C@H](NC(=O)[C@H](N)c3ccccc3)C(=O)N2[C@H]1C(=O)O` [AMPICILLIN], in the assay on Staphylococcus aureus, inhibition was half-maximal at 0.04 µg/mL (≈ 0.114 µM) (IC50).
On to `C=C(C)[C@@H]1CC[C@]2(C(=O)O)CC[C@]3(C(=O)O)[C@H](CC[C@@H]4[C@@]5(C)C=CC(C)(C)[C@@H]5CC[C@]43C)[C@@H]12` [CEANOTHENIC ACID], for which the IC50 is above 10 µg/mL in the assay on BGC-823, 7.55 µg/mL (≈ 16.6 µM) in the assay on HeLa, above 20 µg/mL with Staphylococcus aureus and above 10 µg/mL in the assay on Candida albicans.
In the assay with Candida albicans, `Clc1ccc(COC(Cn2ccnc2)c2ccc(Cl)cc2Cl)c(Cl)c1.O=[N+]([O-])O` (configuration not stated) [MICONAZOLE NITRATE] returned an IC50 of 0.16 µg/mL.
On to `CC(=O)O[C@H]1C(=O)[C@@]2(C)[C@H]([C@H](OC(=O)c3ccccc3)[C@]3(O)C[C@H](OC(=O)[C@H](O)[C@@H](NC(=O)c4ccccc4)c4ccccc4)C(C)=C1C3(C)C)[C@]1(OC(C)=O)CO[C@@H]1C[C@@H]2O` [PACLITAXEL], for which the IC50 was determined as 0.02 µg/mL (≈ 0.0234 µM) in the assay on A549, 0.01 µg/mL (≈ 0.0117 µM) with BGC-823 and 0.38 µg/mL (≈ 0.445 µM) with HeLa.
Consider `CO[C@H]1C[C@@]2(CC[C@]3(C(=O)O)[C@H](CC[C@@H]4[C@@]5(C)C=CC(C)(C)[C@@H]5CC[C@]43C)[C@H]2C=C(C)C)C(=O)O1` [ZIZIMAURITIC ACID A], for which the half-maximal inhibitory concentration (IC50) is 9.37 µg/mL (≈ 19.3 µM) with A549; 8.8 µg/mL (≈ 18.2 µM) with BGC-823; 6.06 µg/mL (≈ 12.5 µM) in the assay with HeLa; 2.17 µg/mL (≈ 4.48 µM) in the assay on Staphylococcus aureus; above 10 µg/mL in the assay with Candida albicans.
The matching figures for `CO[C@@H]1C[C@@]2(CC[C@]3(C(=O)O)[C@H](CC[C@@H]4[C@@]5(C)C=CC(C)(C)[C@@H]5CC[C@]43C)[C@H]2C=C(C)C)C(=O)O1` [ZIZIMAURITIC ACID B]: 5.05 µg/mL (≈ 10.4 µM), 6.24 µg/mL (≈ 12.9 µM), 5.36 µg/mL (≈ 11.1 µM), above 20 µg/mL and above 10 µg/mL.
